Like-named read-outs stand apart in the source and are kept apart here.
How the values were obtained:
[1] = test system: BEL-7402 cells; test: Inhibition of liver cancer cell BEL-7402 in vitro by SRB; format: cell-based; conditions: Homo sapiens, 10^−6M, 72 hours, read-out: The inhibition percentage of cell proliferation by the compounds with a concentration of 10^−6M, BEL-7402 cells
Procedure: A: Inhibition of Liver Cancer Cell BEL-7402 In Vitro by the Compounds Detected by SRB
The liver cancer BEL-7402 cells from ATCC were maintained in DMDM, 10% NCS and 50 μg/ml KANA at 37° C. in a 5% CO2 atmosphere, and were subseeded in a 96-well culture plate at a concentration of 6×10^3 cells/well. BEL-7402 cells were treated with a test compound dissolved in DMSO at the concentration of 0, 10^−4M, 10^−5M, 10^−6M, 10^−7M, 10^−8M for 72 hours. OD value was tested by SRB method, and the inhibition percentage was calculated.

[2] = test system: HL-60 cells; test: Inhibition of growth of acute myeloblastic leukemia HL-60 cells by MTT method; format: cell-based, human; conditions: 72 hours; for inhibition at 1 µM: Homo sapiens, 10^−6M, read-out: The inhibition percentage of cell proliferation by the compounds with a concentration of 10^−6M, HL-60 cells
Procedure: A: Inhibition of Growth of Acute Myeloblastic Leukemia HL-60 Cells by the Compounds Detected by MTT Method
(§1) The acute myeloblastic leukemia HL-60 cells from ATCC were maintained in IMDM and 10% fetal calf serum at 37° C. in a 5% CO2 atmosphere. The cells were subseeded in a 96-well culture plate at a concentration of 6×10^3 cells/well. HL-60 cells were treated with a test compound dissolved in DMSO at the concentration of 0, 10^−4M, 10^−5M, 10^−6M, 10^−7M, 10^−8M for 72 hours. OD value was tested by MTT method, and the inhibition ratio was calculated.

[3] = test system: Molt-4 cells; test: Inhibition of growth of acute lymphoblastic leukemia Molt-4 cells by MTT method; format: cell-based; conditions: 72 hours; for inhibition at 1 µM: Homo sapiens, 10^−6M, read-out: The inhibition percentage of cell proliferation by the compounds with a concentration of 10^−6M, Molt-4 cells
Procedure: B: Inhibition of Growth of Acute Lymphoblastic Leukemia Molt-4 Cells by the Compounds Detected by MTT Method
as §1, with “lymphoblastic” for “myeloblastic”, “Molt-4” for “HL-60”, “RPMI-1640” for “IMDM”, “cells/well and maintained RPMI-1640 and 10% fetal calf serum at 37° C. 5%CO2 atmosphere. Molt-4” for “cells/well. HL-60”

[4] = test system: MDA-MB-231 cells; test: CellTiter-Glo Luminescent Cell Viability Assay on ER-negative breast cancer MDA-MB-231 cells in vitro; format: cell-based; conditions: Homo sapiens, 72 hours, read-out: Inhibition of viability of breast cancer cells IC50, MDA-MB-231 cells
Procedure: A: CellTiter-Glo® Luminescent Cell Viability Assay on ER-Negative Breast Cancer MDA-MB-231 In Vitro:
MDA-MB-231 cells were maintained at 37° C., in a 5% CO2 atmosphere in DMEM and 10% fetal calf serum. The cells were placed at a density of 6×10^3 cells per well in a 96-well plate. MDA-MB-231 cells were treated with a test compound dissolved in DMSO at the concentration of 0, 0.3 μM, 0.5 μM, 1 μM, 2 μM, 3 μM, 5 μM, 10 μM, 20 μM, 30 μM, 50 μM and 100 μM for 72 hours. Treated cells were examined under CellTiter-Glo® Luminescent Cell Viability Assay Kit (Promega), and luminescence were recorded with Envision.

[5] = test system: MCF7 cells; test: CellTiter-Glo Luminescent Cell Viability Assay on ER-positive breast cancer MCF-7 cells in vitro; format: cell-based; conditions: Homo sapiens, 72 hours, read-out: Inhibition of viability of breast cancer cells IC50, MCF7 cells
Procedure: B: CellTiter-Glo® Luminescent Cell Viability Assay on ER-Positive Breast Cancer MCF-7 Cells In Vitro:
MCF7 cells from ATCC were maintained in an Dulbecco's modified Eagle medium (DMEM), and 10% fetal calf serum at 37 in a 5% CO2 atmosphere. Cells were placed at a density of 6×10^3 cells per well in a 96-well plate. MCF 7 cells were treated with a test compound dissolved in DMSO at the concentration of 0, 0.3 μM, 0.5 μM, 1 μM, 2 μM, 3 μM, 5 μM, 10 μM, 20 μM, 30 μM, 50 μM and 100 μM for 72 hours. Treated cells were examined through CellTiter-Glo® Luminescent Cell Viability Assay Kit (Promega), and luminescence were recorded with Envision.

[6] = test system: K562 cells; test: Viability of chronic leukemia cells K562 by CellTiter-Glo Luminescent Assay in vitro; format: cell-based, human; conditions: 72 hours, read-out: Inhibition of viability of cells in vitro IC50, K562 cells
Procedure: A: Detection of Viability of Chronic Leukemia Cells K562 by CellTiter-Glo® Luminescent Assay In Vitro
(§2) The chronic leukemia cells K562 from ATCC were maintained in IMDM and 10% fetal calf serum at 37° C. in a 5% CO2 atmosphere. The cells were subseeded in a 96-well culture plate at a cencentration of 6×10^3 cells/well.K562 cells were treated with a test compound dissolved in DMSO at the concentration of 0, 0.3 μM, 0.5 μM, 1 μM, 2 μM, 3 μM, 5 μM, 10 μM, 20 μM, 30 μM, 50 μM and 100 μM for 72 hours. Treated cells were examined by CellTiter-Glo® Luminescent Cell Viability Assay Kit (Promega), and luminescence were recorded with Envision.

[7] = test system: Daudi cells; test: Inhibition of human B lymphoma Daudi cells by CellTiter-Glo Luminescent Assay in vitro; format: cell-based; conditions: 72 hours, read-out: Inhibition of viability of cells in vitro IC50, Daudi cells
Procedure: A: Inhibition of Human B Lymphoma Daudi Cells by CellTiter-Glo® Luminescent Assay In Vitro
as §2, with “Human B Lymphoma Daudi” for “chronic leukemia”, “cells” for “cells K562”, “concentration” for “cencentration”, “cells/well. Human B Lymphoma Daudi” for “cells/well.K562”, “μM,” for “μM, 5 μM,”, “CeliTiter-Glo®” for “CellTiter-Glo®”

Compound	IC50 [4] [µM]	IC50 [5] [µM]	IC50 ([6]; Homo sapiens) [µM]	IC50 ([7]; Homo sapiens) [µM]	IC50 [6] [µM]	IC50 [7] [µM]	inhibition at 1 µM [1] [%]	inhibition at 1 µM [2] [%]	inhibition at 1 µM [3] [%]	The inhibition percentage of cell proliferation by the compounds with a concentration of 10^−6M, HL-60 cells [2]	The inhibition percentage of cell proliferation by the compounds with a concentration of 10^−6M, Molt-4 cells [3]
COc1cccc2c1C(=O)c1c(O)c3c(c(O)c1C2=O)C[C@@](O)(C(=O)CO)C[C@@H]3O[C@H]1C[C@H](N)[C@H](O)[C@H](C)O1 [Doxorubicin, reference compound]	–	–	–	–	–	–	55.2	79	90.1	–	–
CC(C)=CCc1c(O)cc(O)c2c(=O)c(O)c(-c3ccc(OC(F)(F)F)cc3)oc12 [Compound 5, 2-(4-trifluoromethoxyphenyl)-3,5,7-trihydroxy-8-(3-methyl-2-buten-1-yl)-4H-chromen-4-one]	4.48	6.85	1.48	1.49	–	–	15.6	59.8	69.4	–	–
COc1c(-c2ccc(C(F)(F)F)cc2)oc2c(CC=C(C)C)c(O)cc(O)c2c1=O [Compound 9, 2-(4-trifluoromethylphenyl)-3-methoxy-5,7-dihydroxy-8-(3-methyl-2-buten-1-yl)-4H-chromen-4-one]	> 100	> 100	–	–	–	–	11.7	< 10	< 10	–	–
2-(4-fluorophenyl)-3-methoxy-5,7-dihydroxy-8-(3-methyl-2-buten-1-yl)-4H-chromen-4-one [Compound 11]	–	–	–	–	> 100	> 100	–	–	–	NA (NA means no activity, and inhibition percentage by the compound with a concentration of 10^−6M was below 10%.)	NA (NA means no activity, and inhibition percentage by the compound with a concentration of 10^−6M was below 10%.)
CC(C)=CCc1c(O)cc(O)c2c(=O)c(O)c(-c3ccc(F)cc3)oc12 [Compound 2, 2-(4-fluorophenyl)-3,5,7-trihydroxy-8-(3-methyl-2-buten-1-yl)-4H-chromen-4-one]	> 100	3.17	6.14	9.23	–	–	21.8	–	< 10	–	–
CC(C)=CCc1c(O)cc(O)c2c(=O)c(O)c(-c3ccc(Cl)c(C(F)(F)F)c3)oc12 [Compound 7, 2-(3-trifluoromethyl-4-chlorophenyl)-3,5,7-trihydroxy-8-(3-methyl-2-buten-1-yl)-4H-chromen-4-one]	9.3	7.54	6.14	4.07	–	–	19.8	< 10	57	–	–
Nc1ccn([C@@H]2O[C@H](CO)[C@@H](O)[C@@H]2O)c(=O)n1 [cytarabinen, reference compound]	–	–	–	–	–	10	–	–	–	–	–
COc1c(-c2ccc(F)c(F)c2)oc2c(CC=C(C)C)c(O)cc(O)c2c1=O [Compound 10, 2-(3,4-difluorophenyl)-3-methoxy-5,7-dihydroxy-8-(3-methyl-2-buten-1-yl)-4H-chromen-4-one]	> 100	31.5	> 100	21.8	–	–	17.4	–	–	–	–

The remaining compounds from weak to strong by IC50 [4], led by results:

IC50 [4] [µM]	IC50 [5] [µM]	IC50 ([6]; Homo sapiens) [µM]	IC50 ([7]; Homo sapiens) [µM]	IC50 [6] [µM]	IC50 [7] [µM]	Compound	inhibition at 1 µM [1] [%]	inhibition at 1 µM [2] [%]	inhibition at 1 µM [3] [%]	The inhibition percentage of cell proliferation by the compounds with a concentration of 10^−6M, HL-60 cells [2]	The inhibition percentage of cell proliferation by the compounds with a concentration of 10^−6M, Molt-4 cells [3]
4.33	16	0.974	2.64	–	–	CC(C)=CCc1c(O)cc(O)c2c(=O)c(O)c(-c3ccc(Cl)cc3)oc12 [Compound 4, 2-(4-chlorophenyl)-3,5,7-trihydroxy-8-(3-methyl-2-buten-1-yl)-4H-chromen-4-one]	46.4	0.974	14.7	–	–
2.87	8.6	1.85	2.91	–	–	CC(C)=CCc1c(O)cc(O)c2c(=O)c(O)c(-c3ccc(Cl)c(F)c3)oc12 [Compound 3, 2-(3-fluoro-4-chlorophenyl)-3,5,7-trihydroxy-8-(3-methyl-2-buten-1-yl)-4H-chromen-4-one]	28.6	28.5	14.4	–	–
1.88	6.85	0.935	1.98	–	–	CC(C)=CCc1c(O)cc(O)c2c(=O)c(O)c(-c3ccc(Cl)c(Cl)c3)oc12 [Compound 6, 2-(3,4-dichlorophenyl)-3,5,7-trihydroxy-8-(3-methyl-2-buten-1-yl)-4H-chromen-4-one]	14.9	61.9	67.4	–	–

Source: patent US9221781B2, “Synthesis of polyhydroxy chromenone compounds and their anti-tumor effects” (BEIJING SHENOGEN PHARMA GROUP LTD., priority 2012, dated 2015)
